Measured values published in patent US6893830B1, “Method of screening oxysterol activation of LXRα” (The Board of Regents of the University of Texas System, priority 1996, dated 2005).

Columns and labels:
[1] = molecular target: T1, TR-LXR chimera (TRβ N-terminus and DNA binding domain fused to ligand binding domain of LXRα) (Homo sapiens, UniProt Q13133); test: Chimeric receptor transactivation in CV-1 cells, TR-LXR chimera; assay type: cell-based; settings: TK-LXREx3-LUC
T1 construct: expressed in transfected cells; host or cells: CV-1 monkey kidney cells
T1 sequence (Q13133 164-447): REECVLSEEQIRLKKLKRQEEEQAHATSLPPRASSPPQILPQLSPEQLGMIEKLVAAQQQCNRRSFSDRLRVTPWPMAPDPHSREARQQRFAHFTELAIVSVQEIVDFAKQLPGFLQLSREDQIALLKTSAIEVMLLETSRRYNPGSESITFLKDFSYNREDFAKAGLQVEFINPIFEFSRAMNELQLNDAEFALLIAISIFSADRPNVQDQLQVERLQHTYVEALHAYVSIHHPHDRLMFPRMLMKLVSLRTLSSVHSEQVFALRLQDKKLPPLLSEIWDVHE
Method: Cells were treated with ETOH or 6 μM 22(R)-hydroxycholesterol. […] CV-1 cells were cotransfected with TK-LXREx3-LUC reporter plasmid and expression plasmids containing the indicated receptor combinations, and then treated with the indicated ligands. […] CV-1 cells cotransfected with the LXRα expression plasmid and TK-LXREx3-LUC reporter were treated with 9-cis RA, 22(R)-hydroxycholesterol, or both, at the indicated concentrations.

RXR/LXR heterodimer = RXR/LXR heterodimer activation, dose response in CV-1 cells with TK-LXREx3-LUC; assay type: cell-based, human; settings: LXRα expression plasmid, dose-dependent
Method: (§1) TK-DR-4-LUC; human vitamin D receptor (VDR)^24, TK-DR^3-LUC; human peroxisome proliferator-activated receptor-α (PPARα)^25, TK-PPREx3-LUC; human farnesol activated receptor (FXR)^11, ΔMTV-EcREx5-LUC; human estrogen receptor (ER)^26, ΔMTV-ERE-LUC; human glucocorticoid receptor (GR)^27, MTV-LUC; Drosophila ecdysone receptor (usp/EcR)^15, ΔMTV-EcREx5-LUC. Cells were treated with ETOH or 6 μM 22(R)-hydroxycholesterol. […] FIG. 3(A)-3(D) Activation of LXRα by 22(R)-hydroxycholesterol in Drosophila (SL-2) cells. […] CV-1 cells were cotransfected with TK-LXREx3-LUC reporter plasmid and expression plasmids containing the indicated receptor combinations, and then treated with the indicated ligands. […] CV-1 cells cotransfected with the LXRα expression plasmid and TK-LXREx3-LUC reporter were treated with 9-cis RA, 22(R)-hydroxycholesterol, or both, at the indicated concentrations.
(§2) In FIG. 3B. Drosophila SL-2 cells were transfected and assayed as previously described^5 in 6-well plates with […] A5C-hLXRα or A5C-hLXRα, 0.5 mg ADH-LXREx2-LUC, 0.2 mg A5C-βGAL and […] PGEM4 carrier DNA per well.
A subset of receptors that function as RXR heterodimers have the unique ability to be activated by their own ligand, the RXR ligand (i.e., 9-cis retinoic acid), or both ligands together^11,17. […]

LXRα protein = molecular target: T2, LXRα protein (Homo sapiens, UniProt Q13133); test: Limited protease protection assay (chymotrypsin) of [35S]-labelled Flag-LXRα; assay type: binding; settings: increasing concentrations of chymotrypsin, SDS-PAGE and autoradiography
T2 construct: made in house; host or cells: in vitro synthesis (cell-free translation)
T2 sequence (Q13133 1-447): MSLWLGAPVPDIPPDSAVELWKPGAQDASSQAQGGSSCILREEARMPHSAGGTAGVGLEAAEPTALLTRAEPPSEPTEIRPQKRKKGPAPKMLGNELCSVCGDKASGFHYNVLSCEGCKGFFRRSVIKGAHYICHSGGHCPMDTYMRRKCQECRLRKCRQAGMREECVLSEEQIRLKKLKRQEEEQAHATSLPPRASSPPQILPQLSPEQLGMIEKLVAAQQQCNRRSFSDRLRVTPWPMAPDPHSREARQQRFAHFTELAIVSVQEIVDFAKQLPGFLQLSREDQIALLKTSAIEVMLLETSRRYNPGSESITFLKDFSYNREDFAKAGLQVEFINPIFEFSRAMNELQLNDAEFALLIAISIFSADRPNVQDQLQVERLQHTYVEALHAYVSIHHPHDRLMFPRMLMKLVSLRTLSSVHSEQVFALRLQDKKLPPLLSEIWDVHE
Method: FIG. 4, Protease protection of LXRα with 22(R)-hydroxycholesterol. [^35S]-labelled LXRα protein was incubated with (A) ethanol (ETOH) control or (B) 22(R)-hydroxycholesterol, subjected to protease digestion with increasing amounts of chymotrypsin, and analyzed by SDS-PAGE and autoradiography.
In vitro synthesized [^35S]-labelled Flag-LXRα protein was subjected to protease digestion with α-chymotrysin. For these studies, LXRα with a Flag epitope fused to the amino terminus was used.
The unavailability of radiolabelled LXRα activators prevents direct ligand binding analysis. To address the possibility that 22(R)-hydroxycholesterol interacts with LXRα, a limited protease protection assay was performed (FIG. 4). In this experiment, several proteolytic fragments were generated when LXRα protein was incubated with increasing concentrations of the protease, chymotrypsin. […] The presence of a specific ligand-protected ˜30 kDa fragment has also been observed during similar analyses with other nuclear receptors. Thus, these protease protection studies support the finding that 22(R)-hydroxycholesterol interacts with LXRα.

LXRα = molecular target: T3, LXRα (Homo sapiens, UniProt Q13133); test: Activation of LXRα in Drosophila SL-2 cells (LXR responsive reporter); assay type: cell-based; set-up: expressed in transfected cells; host or cells: Drosophila SL-2 cells; settings: 10 μM
T3 sequence (Q13133 1-447): T2 sequence (Q13133 1-447)
T3 sequence (P19793 1-462 partner): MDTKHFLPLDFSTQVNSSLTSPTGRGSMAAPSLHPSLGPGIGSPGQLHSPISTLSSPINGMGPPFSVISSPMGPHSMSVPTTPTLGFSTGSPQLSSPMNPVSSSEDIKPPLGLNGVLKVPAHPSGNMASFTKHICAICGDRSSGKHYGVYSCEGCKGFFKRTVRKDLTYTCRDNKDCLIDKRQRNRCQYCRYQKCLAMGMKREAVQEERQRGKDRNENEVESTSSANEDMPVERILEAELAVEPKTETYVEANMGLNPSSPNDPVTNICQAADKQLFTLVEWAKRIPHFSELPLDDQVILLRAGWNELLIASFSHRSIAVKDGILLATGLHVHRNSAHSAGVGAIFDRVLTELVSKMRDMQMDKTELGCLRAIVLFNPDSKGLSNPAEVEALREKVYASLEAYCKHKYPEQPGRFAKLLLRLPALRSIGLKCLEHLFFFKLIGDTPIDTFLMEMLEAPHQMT
Method: as §1, §2
The insect cell line, SL-2, which lacks mammalian nuclear receptors and is deficient in the metabolic pathways for cholesterol and bile acid synthesis^14, was used as a transfection host in these experiments. […]

Question: With `CC(C)CC[C@@H](O)[C@@H](C)[C@H]1CC[C@H]2[C@@H]3CC=C4C[C@@H](O)CC[C@]4(C)[C@H]3CC[C@]12C` [22(R)-hydroxycholesterol] as the compound, how does the “responsiveness of TR-LXR chimera” value [1] read?
Answer: responded

Question: And the maximal induction (RXR/LXR heterodimer)?
Answer: 20 fold

Question: And the “ligand-protected 30 kDa chymotrypsin fragment of LXRα” value (LXRα protein)?
Answer: consistently observed

Question: And the “induction, LXRα alone transfected” value (LXRα; LXRα alone)?
Answer: 6 fold

Question: What about the “induction, RXRα cotransfected with LXRα” value (LXRα; RXRα plus LXRα) of the same compound?
Answer: 26 fold
